According to patent US20250032504A1, “NOVEL APPLICATION OF KINASE INHIBITOR” (TRANSTHERA SCIENCES (NANJING), INC., priority 2021, published 2025):

Tests used:
[1] = tested on: human prostate cancer LD1-0034-361929 subcutaneous xenograft tumor model; assay: In-vivo pharmacodynamic study on human castration resistant prostate cancer PDX subcutaneous tumor model; parameters: species or system male Nu/Nu nude mice; settings: abiraterone-resistant CRPC PDX in nude mice, oral intragastric Qd, 39 days, compound 29 15 mg/kg, abiraterone 200 mg/kg; for TGI (%): TGI=1−T/C
Protocol: Test sample: compound 29 of the present invention, the structure of which is shown above, and which was prepared as described in the detailed description of WO2018108079A1. Abiraterone was obtained from commercially available sources.
Animals, information on the patient from whom the tumor masses were derived, and other materials: human prostate cancer tumor sample LD1-0034-361929, derived from a patient resistant to abiraterone; clinical diagnosis: castration resistant prostate cancer with bladder metastatic lesions, pathological diagnosis: prostate cancer-poorly differentiated adenocarcinoma; • male Nu/Nu nude mice, aged 6-8 weeks.
The tumor masses were inoculated into the right back of mice, and the animals were weighed before administration. Tumor volumes were measured, and grouping was designed in blocks according to the tumor volumes.
Administration was carried out as in the table below.
The animals were monitored daily for health status and mortality, body weight and tumor volume were measured twice a week, and samples were collected after the last administration. The therapeutic effect on tumor volume was evaluated by TGI %, wherein the relative tumor inhibition rate TGI (%): TGI=1−T/C (%). T/C % is the relative tumor proliferation rate, i.e., the percentage of the relative tumor volume in the treatment and control groups at a given time point. T and C are relative tumor volumes (RTVs) of the treatment and control groups at a given time point, respectively. The calculation formula is as follows: T/C %=TRTV/CRTV×100% (TRTV: mean RTV for treatment group; CRTV: mean RTV for vehicle control group; RTV=Vt/V0, wherein V0 is the tumor volume of the animal at the time of grouping, and Vt is the tumor volume of the animal after treatment).

[2] = tested on: LNCaP clone FGC; assay: Prostate cancer cell proliferation assay (Cell titer-Glo, 72 h), LNCaP clone FGC; format: cell-based; settings: Homo sapiens, LNCaP clone FGC cells, inhibition of proliferation, read-out: Compound IC50/nM
Protocol: (§1) Prostate cancer cell materials: DU145, PC-3, VCaP, and LNCaP clone FGC.
(§2) Test instrument: PE Envision multimode microplate reader.
(§3) Each cell line was seeded in a 384-well plate for adherent culture overnight, and then compounds at different concentrations (10 dose groups, serial 4-fold dilution with DMSO) were added to give a maximum final concentration of 10000 nM, wherein the final DMSO content was 0.33%, and staurosporine at a final concentration of 10 μM was used as a system positive control ([…] inhibition). Negative control wells contained medium with the same amount of DMSO (0% inhibition). The plate was incubated at 37° C., 5% CO2 and 95% humidity for 72 h for later test. 30 μL of Cell titer-Glo reagent was added to each well, and after the plate was incubated at room temperature for 30 min, the final data were read using the microplate reader.
(§4) The data were calculated as follows:
(§5) Inhibition rate (%)=100%−(compound signal−system positive control signal)/(negative control signal−system positive control signal)[…].

[3] = tested on: VCaP; assay: Prostate cancer cell proliferation assay (Cell titer-Glo, 72 h), VCaP; format: cell-based; settings: Homo sapiens, VCaP cells, inhibition of proliferation, read-out: Compound IC50/nM
Protocol: as §1, §2, §3, §4, §5

[4] = tested on: DU145; assay: Prostate cancer cell proliferation assay (Cell titer-Glo, 72 h), DU145; format: cell-based; settings: Homo sapiens, DU-145, DU145 cells, inhibition of proliferation, read-out: Compound IC50/nM
Protocol: as §1, §2, §3, §4, §5

[5] = tested on: metastatic castration resistant prostate cancer; assay: Clinical study in patients with metastatic castration resistant prostate cancer; format: in vivo, human; settings: among 11 mCRPC patients with response evaluation data (10 at 12 mg, 1 at 10 mg), oral once daily, 28-day cycles
Protocol: Test medicament: compound 29, the structure of which is shown above, and which was prepared as described in the detailed description of WO2018108079A1.
Inclusion criteria: patients with histopathologically or cytologically confirmed metastatic castration resistant prostate cancer for which no standard therapy is available.
Dosing regimen: compound 29 was administered orally at a prescribed dose (such as 8 mg, 10 mg, or 12 mg) once daily, with 28 consecutive days of administration being one cycle.
Response evaluation: among the 11 patients with response evaluation data (10 patients received a single dose of 12 mg, and 1 patient received a single dose of 10 mg), 7 patients achieved partial response (PR), and 2 patients reported stable disease (SD).

[6] = tested on: PC-3; assay: Prostate cancer cell proliferation assay (Cell titer-Glo, 72 h), PC-3; format: cell-based; settings: Homo sapiens, PC-3 cells, inhibition of proliferation, read-out: Compound IC50/nM
Protocol: as §1, §2, §3, §4, §5

SMILES	Tumor volume (mm^3) [1]	TGI (%) [1]	IC50 [2]	IC50 [3]	IC50 [4]	patients achieved partial response (PR) [5]	IC50 [6]
C[C@]12CC[C@H](O)CC1=CC[C@@H]1[C@@H]2CC[C@]2(C)C(c3cccnc3)=CC[C@@H]12 [Abiraterone, reference compound]	1549.43 ± 533.15 mm^3	−8.97%					
Cc1[nH]nc2c1N=C(c1ccccc1Cl)c1cnc(N3CCOCC3)cc1N2 [Compound 29]	622.23 ± 247.3 mm^3	58.07%	1000 to 10000 nM	< 1000 nM	< 1000 nM	7 patients	< 1000 nM
